Measurements taken from US20200215016A1, “Ketone Bodies To Protect Tissues From Damage By Ionizing Radiation” (TDELTAS LIMITED, priority 2012, published 2020).

Legend:
[1] = Ketone ester blood metabolite levels / ketosis after administration; assay type: in vivo; conditions: FIG. 5: 5 grams/kg dose, males
Procedure: FIG. 5 is a graph illustrating ketone ester blood metabolite levels (5 grams/kg dose, males).
To maintain elevated blood ketone body concentrations over a 24 hour period, delayed release formulations can be used. The release of the (R)-3-hydroxybutyrate derivatives can be controlled by a number of formulation techniques. For example, techniques such as enteric coatings, film coatings, microencapsulation and the like can be used to retard release of the (R)-3-hydroxybutyrate derivatives as is known to those of ordinary skill in the art.

[2] = tested on: Human osteoblast cells (HOS); experiment: Cellular radioprotection of cultured osteoblasts exposed to 60Co gamma radiation; assay type: cell-based; conditions: ketone ester administered after radiation
Procedure: FIG. 1 is a pair of graphs illustrating cellular radioprotection by ketone esters. Human osteoblast cells (HOS) were treated with ketone esters either pre-(left panel) or post-(right panel) ^60Co gamma radiation (0.6 Gy/min). The methods used in the studies of cultured cells were the same as previously reported in Miller A. C. et al., Int. J. of Radiation Biol. 1997, 72: 211-18. The ester composition used was the mono R 3 hydroxybutyryl-R-1,3 butanediol enantiomerically enriched in the 1 position of R-1,3 butanediol. Studies were performed using cultured osteoblasts exposed to gamma radiation with and without (R)-1,3-butanediol ester of (R)-3-hydroxybutyrate as described herein to determine the effect of ketone esters on radiation damage. FIG. 1 is a pair of graphs illustrating cellular radioprotection by ketone esters in which human cultured osteoblast cells were treated pre- or post […] gamma radiation (0.6 Gy/min) with a ketone ester. FIG. 2 illustrates chromosomal protection by ketone esters. FIG. 3 is a pair of graphs illustrating protection against proton radiation after administration of ketones in which human cultured osteoblast cells were treated pre- or post-proton radiation (4 MeV) with a ketone ester. FIG. 4 is a graph illustrating ketone ester stability at pH 7. FIG. 5 is a graph illustrating ketone ester blood metabolite levels. […]

HOS cells = experiment: Protection of cultured osteoblasts against proton radiation (4 MeV): cell survival and DNA damage; assay type: cell-based, human; conditions: ketone treatment prior to proton radiation (4 MeV)
Procedure: FIG. 3 is a pair of graphs and images illustrating protection against proton radiation after administration of ketones. HOS cells were treated with ketone esters either pre- or post-proton radiation (4 MeV). […] The methods used in the studies of cultured cells were the same as previously reported in Miller A. C. et al., Int. J. of Radiation Biol. 1997, 72: 211-18. The ester composition used was the mono R 3 hydroxybutyryl-R-1,3 butanediol enantiomerically enriched in the 1 position of R-1,3 butanediol. Studies were performed using cultured osteoblasts exposed to gamma radiation with and without (R)-1,3-butanediol ester of (R)-3-hydroxybutyrate as described herein to determine the effect of ketone esters on radiation damage. FIG. 1 is a pair of graphs illustrating cellular radioprotection by ketone esters in which human cultured osteoblast cells were treated pre- or post […] gamma radiation (0.6 Gy/min) with a ketone ester. FIG. 2 illustrates chromosomal protection by ketone esters. FIG. 3 is a pair of graphs illustrating protection against proton radiation after administration of ketones in which human cultured osteoblast cells were treated pre- or post-proton radiation (4 MeV) with a ketone ester. FIG. 4 is a graph illustrating ketone ester stability at pH 7. FIG. 5 is a graph illustrating ketone ester blood metabolite levels. […]

Question: What does the source list for C[C@@H](O)CCOC(=O)C[C@@H](C)O [ketone esters, mono R 3 hydroxybutyryl-R-1,3 butanediol]?
Answer: generation of ketosis [1]: sustained generation of ketosis over a period of hours; cell salvage [2]: increases cell salvage; cell survival (HOS cells; FIG. 3 left graph): increased cell survival; DNA damage (HOS cells; FIG. 3 right graph): mitigated DNA damage
